Results on 1 molecule are retold here after US10105401B2, “Composition comprising bioactive amino acids and/or peptides and marine oil in a stable oil-in-water emulsion, and the use of said composition as a functional or therapeutic composition” (SMARTFISH AS, priority 2009, dated 2018).

The conditions of data set [1]: when supplemented as part of Smartfish; skeletal muscle, heart, brain.
Method: The tissues were finally analyzed for the content of carnosine, both labeled and non-labeled.
This amount equals 200 mg/kg per day. After one week, the following organs were dissected out; gastrocnemius, heart and brain and immediately frozen in liquid nitrogen, and stored at −80° C.
Carnosine (Sigma-Aldrich) and 15N13C2-labeled carnosine (Sigma-Aldrich) concentrations in tissue were determined by HPLC-MS/MS operated in MRM mode.
Mouse tissues were homogenized in Methanolic HCL using a pellet grinder with cordless motor (Kontes). The homogenate was incubated for 30 min at 50° C. This procedure homogenized the tissue, precipitated proteins and methylated the carboxcylic acid group.
After centrifugation, the supernatant were injected directly into the LC-MS/MS system. Calibrators were prepared by methylation of non labeled carnosine in methanolic HCl. The HPLC column used was a Zorbax XDB 150×4.6 mm ID with 5 μm particles. A gradient elution starting with 10% MeOH in water and 4 g/l ammonium acetate 40% MeOH for 3 minutes changing linearly to 100% methanol over 3.5 minutes was used to separate carnosine from other constituents.
For data set [2] the following is noted: cited from earlier work.

Consider `NCCC(=O)O` [β-alanine], for which the “bioavailability and tissue uptake of β-alanine” value in data set [1] is “bioavailable and taken up by all the three target tissues”. For the same molecule, in data set [2] (human volunteers, nine week washout after six weeks of β-alanine), the “reduction of muscle carnosine levels per week in washout” value is on record as 2.5-3.5 % reduction/week. Also, in data set [2] (humans, six week period, 4.8 g β-alanine per day), the “average increase in muscle carnosine” value is reported as 27%.
